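Grown in 96-well plates, cells were treated for 48 hours with each compound at five concentrations. Insufficient inhibition: endpoint recorded as highest concentration tested. At the GI50, growth is halved. TGI marks complete inhibition of growth.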
Legend:
Assay in all cases: DTP human tumour cell line panel, 48 h
[1] = system: ACHN renal
[2] = system: CAKI-1 renal
[3] = system: MALME-3M melanoma
[4] = system: OVCAR-8 ovarian
[5] = system: NCI-H23 lung
[6] = system: LOX IMVI melanoma
[7] = system: OVCAR-4 ovarian
[8] = system: SF-295 CNS
[9] = system: HT29 colon
[10] = system: PC-3 prostate

| Compound | TGI [1] [µM] | TGI [2] [µM] | TGI [3] [µM] | TGI [4] [µM] | TGI [5] [µM] | TGI [6] [µM] | TGI [7] [µM] | TGI [8] [µM] | TGI [9] [µM] | TGI [10] [µM] | GI50 [1] [µM] | GI50 [2] [µM] | GI50 [3] [µM] | GI50 [4] [µM] | GI50 [5] [µM] | GI50 [6] [µM] | GI50 [7] [µM] | GI50 [8] [µM] | GI50 [9] [µM] | GI50 [10] [µM] |
| --- | --- | --- | --- | --- | --- | --- | --- | --- | --- | --- | --- | --- | --- | --- | --- | --- | --- | --- | --- | --- |
| O=c1c2c(-c3ccccc3)c3ccccc3nc2cnn1-c1ccccc1 | > 100 | > 100 | > 100 | > 100 | > 100 | > 100 | > 100 | > 100 | > 100 |  |  |  |  |  |  |  |  |  |  |  |
| COc1ccc2c(c1)CN([C@@H](C)[C@H]1CC[C@H]3[C@@H]4CC[C@H]5C[C@@H](O)CC[C@]5(C)[C@H]4CC[C@]13C)CO2 | 11.2 | 13.8 | 3.47 | > 24.1 | 5.12 |  | 17.8 | 2.98 | 3.63 | 7.46 |  |  |  |  |  |  |  |  |  |  |
| CCOc1cccc2c1N[S@@](=O)S2 | > 100 | > 100 | > 100 |  | > 100 | > 100 |  | > 100 | > 100 |  |  |  |  |  |  |  |  |  |  |  |
| COc1cc2c(c3c1c(=O)c1ccccc1n3C)C=CC(C)(C)O2 | > 100 | > 100 | > 100 | > 100 | > 100 | > 100 | > 100 | > 100 | > 100 |  |  |  |  |  |  |  |  |  |  |  |
| CC(=O)OC(C(=O)[O][Sn]([CH3])([CH3])[CH3])c1ccccc1 (stereo not given) | > 100 | > 100 | > 100 | > 100 | > 100 | > 100 | > 100 | > 100 | > 100 |  | > 100 | > 100 | > 100 | > 100 | > 100 | > 100 | > 100 | > 100 | > 100 |  |
| C#CCN(N=O)C(=O)ON1C(=O)CCC1=O | > 100 |  | > 100 | > 100 | > 100 | > 100 | > 100 | > 100 | > 100 |  |  |  |  |  |  |  |  |  |  |  |
| O=C1CCC2(c3ccccc3)Nc3ccccc3N12 (stereo not given) | > 100 | > 100 | > 100 | > 100 | > 100 | > 100 | > 100 | > 100 | > 100 |  |  |  |  |  |  |  |  |  |  |  |
| CN/N=C(/c1nc2ccc([N+](=O)[O-])cc2[nH]c1=O)C(O)c1ccc(C(O)/C(=N\NC)c2nc3ccc([N+](=O)[O-])cc3[nH]c2=O)cc1 (stereo not given) | > 100 | > 100 | > 100 | > 100 | > 100 | > 100 |  | > 100 | > 100 |  |  |  |  |  |  |  |  |  |  |  |
| CCOc1ccc(N=C(NC(=O)c2ccccc2)SC)cc1 | > 100 | > 100 | > 100 | > 100 | > 100 | > 100 | > 100 | > 100 | > 100 |  |  |  |  |  |  |  |  |  |  |  |
| CO[C@H]1/C=C/O[C@@]2(C)Oc3c(C)c(O)c4c(O)c(c(/C=N/N5CCN(C)CC5)c(O)c4c3C2=O)NC(=O)/C(C)=C\C=C\[C@H](C)[C@H](O)[C@@H](C)[C@@H](O)[C@@H](C)[C@H](OC(C)=O)[C@@H]1C | > 100 | > 100 | > 100 | > 100 |  |  |  |  | > 100 | > 100 |  |  |  |  |  |  |  |  |  |  |
| N=c1c2ccccc2sc2nc3ccccc3n12 | > 100 | > 100 | > 100 | > 100 | > 100 | > 100 | > 100 | > 100 | > 100 |  |  |  |  |  |  |  |  |  |  |  |
| COc1ccc(/C=C2\CCC(CCN(C)C)(C3=CCCC3)C2=O)cc1 (stereo not given) | 31.2 | 22.8 | 32.6 | 34.9 | 81.3 | 30.8 | 44.5 | 33.4 | 32.8 |  |  |  |  |  |  |  |  |  |  |  |
| C=C1C(=O)OC2C1CCC(C)C1(O)C=CC(=O)C21C (stereo not given) | > 10 |  | > 10 | > 10 | > 10 | > 10 | > 10 | > 10 | > 10 | > 10 |  |  |  |  |  |  |  |  |  |  |
| CCSc1ccc([C@@H]2[C@@H](O)C(=O)N2c2cc(OC)c(OC)c(OC)c2)cc1 | 43.7 |  | 50.4 | 16.8 | 61 | 14.5 | 75.8 | 17.5 | 11.5 | 79.7 | 0.0141 |  | 15.8 | 0.0211 | 0.0456 | < 0.0147 | 0.0674 | < 0.01 | < 0.0155 | 0.0146 |
| COc1ccc(C(=O)c2sc3nc(-c4ccccc4OC)ccc3c2N)cc1OC | > 100 | > 100 | > 100 | > 100 | > 100 |  | > 100 | 54.3 | > 100 | 35.1 | 7.24 | 27.6 | 3.65 | 4.02 | 50.1 |  | 7.49 | 4.37 | 4.9 | 2.84 |
| COC(=O)c1cc(=O)nc2cc3cccccc3n12 | > 100 |  | > 100 | > 100 | > 100 | > 100 |  | > 100 | > 100 |  |  |  |  |  |  |  |  |  |  |  |
| C1=Cc2nc1c(-c1ccccc1)c1ccc([nH]1)c(-c1ccccc1)c1nc(c(-c3ccccc3)c3ccc([nH]3)c2-c2ccccc2)C=C1 | > 100 | > 100 | > 100 | > 100 | > 100 | > 100 | > 100 | > 100 | > 100 |  |  |  |  |  |  |  |  |  |  |  |
| CN(C)c1ccc(/C=C(\NC(=O)c2ccccc2)c2nc3ccc4c(c3[nH]2)C(=O)c2ccccc2C4=O)cc1 |  | > 100 | > 100 | > 100 | > 100 | > 100 | > 100 | > 100 | > 100 |  |  |  |  |  |  |  |  |  |  |  |
| CC(/C=C/C(O)=C1/C(=O)CNC1=O)=C\[C@@H](C)[C@H]1O[C@@]2(C)O[C@H](C(=O)[C@@H]3O[C@@]32C)[C@@H]1C | 41.9 | 57 | 38 | 46.4 | 59 | 33.5 |  |  | 47 | 31.8 |  |  |  |  |  |  |  |  |  |  |
| CCCCCCC(O)CC[C@H]1CCC[C@@H](C)N1 (stereo not given in full) | > 100 | > 100 | > 100 | < 10 | < 10 | > 100 | < 10 | > 31.6 | > 31.6 |  |  |  |  |  |  |  |  |  |  |  |
| COC/N=C(\NC#N)NCOC | > 100 | > 100 | > 100 | > 100 | > 100 | > 95.8 | > 100 | > 100 | > 100 |  |  |  |  |  |  |  |  |  |  |  |
